Laboratory results from ChEMBL document CHEMBL2331257, “(M)- and (P)-bicelaphanol A, dimeric trinorditerpenes with promising neuroprotective activity from Celastrus orbiculatus” (2013).

How the values were obtained:
Assay type in all cases: functional
PC-12 [1] = assay: Neuroprotective activity against H2O2-induced toxicity in rat PC12 cells assessed as cell viability at 10 uM incubated for 2 hrs prior to H2O2-challenge measured after 24 hrs by MTT assay relative to control; details: for viability at 10 µM: Rattus norvegicus, PC-12, read-out: Activity
PC-12 [2] = assay: Neuroprotective activity against H2O2-induced toxicity in rat PC12 cells assessed as cell viability at 1 uM incubated for 2 hrs prior to H2O2-challenge measured after 24 hrs by MTT assay relative to control; details: for viability at 1 µM: Rattus norvegicus, PC-12, read-out: Activity
PC-12 [3] = assay: Neuroprotective activity against H2O2-induced toxicity in rat PC12 cells assessed as cell viability at 100 uM incubated for 2 hrs prior to H2O2-challenge measured after 24 hrs by MTT assay relative to control; details: read-out: Activity

Structure (SMILES) | Activity (PC-12 [1]) [%] | Activity (PC-12 [2]) [%] | viability at 10 µM (PC-12 [1]) [%] | viability at 1 µM (PC-12 [2]) [%] | viability at 100 µM (PC-12 [3]) [%]
CC1(C)CCC[C@@]2(C)C1=C(O)C(=O)c1c2cc(O)c(O)c1C1=C2C=C(O)C(=O)C=C2[C@@]2(C)CCCC(C)(C)[C@@H]2C1=O (stereo in doubt; 1) | 102.7 | 81.3 | – | – | –
CC1(C)CCC[C@@]2(C)C1=C(O)C(=O)c1c2cc(O)c(O)c1C1=C2C=C(O)C(=O)C=C2[C@@]2(C)CCCC(C)(C)[C@@H]2C1=O (stereo in doubt; 2) | – | – | 91.6 | 78.3 | –
CC(=O)N[C@@H](CS)C(=O)O [ACETYLCYSTEINE] | – | – | – | – | 76.1
CC1(C)CCC[C@@]2(C)C1=C(O)C(=O)c1cc(O)c(O)cc12 [CELAPHANOL A] | – | – | 76.9 | 66.4 | –
